Source: PubChem BioAssay AID1963431 (Molecular Pharmacology Branch, DTP, NCI, 2024)

System: Rh18 complex spheroid viability, percent test/control
Assay: Anticancer human tumor Rh18 cell line growth inhibition [Asc];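 also: spheroids exposed to compound for 7 days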;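 as to viability, T/C: 100% = DMSO vehicle control wells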
Conditions: for IC50: curve of first compound; for viability, T/C: stronger effect = lower value
Experimental: Multicellular complex tumor spheroid response to apoptosis pathway targeting inhibitors Alrizomadlin, Pelcitoclax, and Dasminapant in combination with a variety of drugs and investigational agents in selected tumor cell lines
The MDM2 inhibitor alrizomadlin, the Bcl-2/Bcl-xL inhibitor pelcitoclax, and the IAPs inhibitor dasminapant were evaluated both individually and in combination with standard of care and investigational anticancer small molecules within a complex spheroid model of solid tumors. . Complex spheroids include a stromal component modeled by human endothelial cells (HUVEC) and fibroblasts modeled by human mesenchymal stem cells (MSCs). The concentration ranges selected for each drug and investigational agent were based upon clinically achievable concentrations if the clinical Cmax of the agent was known.
Compounds. The drugs and investigational agents: alrizomadlin (APG-115; NSC831270), pelcitoclax (APG-1252; NSC835773), dasminapant (APG-1387;NSC834197), TAK-243 (NSC785004), copanlisib (NSC809693), olaparib (NSC753686), talazoparib (NSC767125), cobimetinib (NSC 768068), eltanexor (KPT-8602, NSC 794443), abemaciclib (NSC 768073), sotorasib (NSC818433), adagrasib (NSC 831453), MRTX-1133 (NSC 836407), Iadademestat (ORY1001, NSC 806812), and RMC-4630 (NSC839698), were obtained from the NCI Developmental Therapeutics Program Chemical Repository. The FDA-approved anticancer drug set is available from the Developmental Therapeutics Program at https://dtp.cancer.gov/organization/dscb/obtaining/available plates.htm. […] The stock solutions were prepared in dimethyl sulfoxide (DMSO, Sigma-Aldrich, St. Louis, MO, cat. D2650) at 800-fold the tested concentration and stored at -70 degrees C prior to their use. All drugs and investigational agents were tested over a range starting from a high concentration at or near the clinical Cmax and decreasing in half-log increments. If the clinical Cmax for an agent had not been determined, the highest concentration tested was 10 microM.
The patient-derived cancer (PDC) cell lines include five colon adenocarcinomas: 186277-243-T-J2-PDC, 616215-338-R-J1-PDC, 439559-082-T-J2-PDC, 463943-066-T-J2-PDC, and 519858-162-T-J1-PDC; three pancreatic carcinomas: 323965-272-R-J2-PDC, 521955-158-R6-J3-PDC, and 521955-158-R2-J5-PDC; two uterine sarcomas: 327498-152-R-J2-PDC and 993429-296-R-J1-PDC; two rhabdomyosarcomas: 755483-174-R-J1-PDC and 772245-204-R-J1-PDC; two soft tissue sarcomas: 126254-015-R-J1-PDC and 494315-158-R-J1-PDC; two malignant fibrous histiocytomas: 317291-083-R-J1-PDC and 596521-263-R-J1-PDC; two breast carcinomas: 171881-019-R-J1-PDC and 885512-296-R-J2-PDC; and one ovarian carcinoma: 6556581-035-R-J-PDC were obtained from the NCI PDMR, (https://pdmr.cancer.gov). The established cell lines HSSY-2 synovial sarcoma (RRID:CVCL 8719), SYO-1 synovial sarcoma (RRID:CVCL_7146), MPNST malignant peripheral neural sheath tumor were obtained from the Sloan Kettering Institute. The following established cell lines were purchased from the American Type Culture Collection (ATCC, Manassas, VA), Sor the received from the NCI repository:, PANC-1 pancreatic carcinoma (CRL-1469, RRID:CVCL_0480), OVCAR-5 ovarian carcinoma (RRID:CVCL_1628), OVCAR-8 ovarian carcinoma (RRID:CVCL_1629), , MCF-7 breast carcinoma (CRL-12584, RRID:CVCL_0031), MDA-MB-231 breast carcinoma (CRL-12532, RRID:CVCL_0062), NCI-H1876 small cell lung carcinoma (CRL-5902, RRID:CVCL_1503), NCI-H510A small cell lung carcinoma (HTB-184, RRID:CVCL_1565), NCI-H1417 (CRL-5869, RRID:CVCL_1469), and NCI-H196 small cell lung carcinoma (CRL-5823, RRID:CVCL_1509). Dr. Peter Houghton (Greehey Children's Cancer Research Institute, University of Texas Health Science Center, San Antonio, TX) provided Rh-18 rhabdomyosarcoma (RRID:CVCL_1659). Pooled donor human umbilical vein endothelial cells (HUVEC, Lonza, cat. CC-2519) and human mesenchymal stem cells (hMSC, Lonza, cat. PT-2501) were purchased from Lonza (Walkersville, MD).
Cell Culture. […]

## CNC(C)C(=O)NC1CN(S(=O)(=O)c2cccc(S(=O)(=O)N3CCC4CCC(C(=O)NC(c5ccccc5)c5ccccc5)N4C(=O)C(NC(=O)C(C)NC)C3)c2)CCC2CCC(C(=O)NC(c3ccccc3)c3ccccc3)N2C1=O (stereo not given) + Cc1c(S(C)(=O)=O)c(-c2cc(F)cc(N3CCN(c4ccc(NS(=O)(=O)c5ccc(NC(CCN6CCC(C(=O)OCCCP(=O)(O)O)CC6)CSc6ccccc6)c(S(=O)(=O)C(F)(F)F)c5)cc4)CC3)c2)c(-c2ccc(Cl)cc2)n1C(C)C
Second compound 0.1 µM
  IC50: < 3.16 nM
Second compound 0.316 µM
  IC50: < 3.16 nM
Second compound 1 µM
  IC50: < 3.16 nM
Second compound 3.16 µM
  IC50: < 3.16 nM
Second compound 10 µM
  IC50: < 3.16 nM
Second compound 0.1 µM, first compound 0.00316 µM
  viability, T/C: 11.9%
Second compound 0.1 µM, first compound 0.01 µM
  viability, T/C: 9.77%
Second compound 0.1 µM, first compound 0.0316 µM
  viability, T/C: 7.82%
Second compound 0.1 µM, first compound 0.1 µM
  viability, T/C: 7.58%
Second compound 0.1 µM, first compound 0.316 µM
  viability, T/C: 5.36%
Second compound 0.1 µM, first compound 1 µM
  viability, T/C: 6.51%
Second compound 0.316 µM, first compound 0.00316 µM
  viability, T/C: 8.42%
Second compound 0.316 µM, first compound 0.01 µM
  viability, T/C: 7.07%
Second compound 0.316 µM, first compound 0.0316 µM
  viability, T/C: 8.09%
Second compound 0.316 µM, first compound 0.1 µM
  viability, T/C: 5.52%
Second compound 0.316 µM, first compound 0.316 µM
  viability, T/C: 3.69%
Second compound 0.316 µM, first compound 1 µM
  viability, T/C: 5.21%
Second compound 1 µM, first compound 0.00316 µM
  viability, T/C: 7.09%
Second compound 1 µM, first compound 0.01 µM
  viability, T/C: 5.98%
Second compound 1 µM, first compound 0.0316 µM
  viability, T/C: 4.86%
Second compound 1 µM, first compound 0.1 µM
  viability, T/C: 4.96%
Second compound 1 µM, first compound 0.316 µM
  viability, T/C: 4.99%
Second compound 1 µM, first compound 1 µM
  viability, T/C: 4.12%
Second compound 3.16 µM, first compound 0.00316 µM
  viability, T/C: 4.15%
Second compound 3.16 µM, first compound 0.01 µM
  viability, T/C: 4.41%
Second compound 3.16 µM, first compound 0.0316 µM
  viability, T/C: 3.7%
Second compound 3.16 µM, first compound 0.1 µM
  viability, T/C: 4.89%
Second compound 3.16 µM, first compound 0.316 µM
  viability, T/C: 2.21%
Second compound 3.16 µM, first compound 1 µM
  viability, T/C: 3.61%
Second compound 10 µM, first compound 0.00316 µM
  viability, T/C: 5.31%
Second compound 10 µM, first compound 0.01 µM
  viability, T/C: 4.19%
Second compound 10 µM, first compound 0.0316 µM
  viability, T/C: 2.98%
Second compound 10 µM, first compound 0.1 µM
  viability, T/C: 3.4%
Second compound 10 µM, first compound 0.316 µM
  viability, T/C: 2.94%
Second compound 10 µM, first compound 1 µM
  viability, T/C: 2.34%

## CCN1C(C(=O)NC23CCC(C(=O)O)(CC2)CC3)C(c2cccc(Cl)c2F)C2(C(=O)Nc3cc(Cl)ccc32)C12CCCCC2 (stereo not given) + Cc1c(S(C)(=O)=O)c(-c2cc(F)cc(N3CCN(c4ccc(NS(=O)(=O)c5ccc(NC(CCN6CCC(C(=O)OCCCP(=O)(O)O)CC6)CSc6ccccc6)c(S(=O)(=O)C(F)(F)F)c5)cc4)CC3)c2)c(-c2ccc(Cl)cc2)n1C(C)C
Second compound 0.1 µM
  IC50: < 9.49 nM
Second compound 0.316 µM
  IC50: < 9.49 nM
Second compound 1 µM
  IC50: < 9.49 nM
Second compound 3.16 µM
  IC50: < 9.49 nM
Second compound 10 µM
  IC50: < 9.49 nM
Second compound 0.1 µM, first compound 0.00949 µM
  viability, T/C: 19%
Second compound 0.1 µM, first compound 0.03 µM
  viability, T/C: 21%
Second compound 0.1 µM, first compound 0.0949 µM
  viability, T/C: 10.3%
Second compound 0.1 µM, first compound 0.3 µM
  viability, T/C: 6.82%
Second compound 0.1 µM, first compound 0.949 µM
  viability, T/C: 7.29%
Second compound 0.1 µM, first compound 3 µM
  viability, T/C: 3.96%
Second compound 0.316 µM, first compound 0.00949 µM
  viability, T/C: 12%
Second compound 0.316 µM, first compound 0.03 µM
  viability, T/C: 16.4%
Second compound 0.316 µM, first compound 0.0949 µM
  viability, T/C: 7.76%
Second compound 0.316 µM, first compound 0.3 µM
  viability, T/C: 5.97%
Second compound 0.316 µM, first compound 0.949 µM
  viability, T/C: 4.04%
Second compound 0.316 µM, first compound 3 µM
  viability, T/C: 0.91%
Second compound 1 µM, first compound 0.00949 µM
  viability, T/C: 8.76%
Second compound 1 µM, first compound 0.03 µM
  viability, T/C: 8.85%
Second compound 1 µM, first compound 0.0949 µM
  viability, T/C: 5.21%
Second compound 1 µM, first compound 0.3 µM
  viability, T/C: 4.08%
Second compound 1 µM, first compound 0.949 µM
  viability, T/C: 1.55%
Second compound 1 µM, first compound 3 µM
  viability, T/C: 0.87%
Second compound 3.16 µM, first compound 0.00949 µM
  viability, T/C: 6.63%
Second compound 3.16 µM, first compound 0.03 µM
  viability, T/C: 5.76%
Second compound 3.16 µM, first compound 0.0949 µM
  viability, T/C: 4.28%
Second compound 3.16 µM, first compound 0.3 µM
  viability, T/C: 3.45%
Second compound 3.16 µM, first compound 0.949 µM
  viability, T/C: 0.93%
Second compound 3.16 µM, first compound 3 µM
  viability, T/C: 0.73%
Second compound 10 µM, first compound 0.00949 µM
  viability, T/C: 5.47%
Second compound 10 µM, first compound 0.03 µM
  viability, T/C: 3.7%
Second compound 10 µM, first compound 0.0949 µM
  viability, T/C: 2.69%
Second compound 10 µM, first compound 0.3 µM
  viability, T/C: 1.52%
Second compound 10 µM, first compound 0.949 µM
  viability, T/C: 0.64%
Second compound 10 µM, first compound 3 µM
  viability, T/C: 0.73%
